Results from patent US5672715A, “Herbicidal substituted 3-aryl-pyrazoles” (Monsanto Company, priority 1995, dated 1997).

Legend:
Type in all cases: in vivo
Seedling Johnsongrass [1] = test: post-emergence herbicide test; conditions: Sorghum halepense, post-emergence, 0.25 lb/A; read-out: % plant inhibition
Outline: (§1)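 Activity is given as percent inhibition of each species following foliar application. Pots were sprayed individually in a chamber once plants reached two to three weeks.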

Birdseye Speedwell [2] = test: post-emergence herbicide test; conditions: post-emergence, 0.25 lb/A; read-out: % plant inhibition
Outline: as §1

Downy Brome [3] = test: post-emergence herbicide test; conditions: Bromus tectorum, post-emergence, 0.25 lb/A; read-out: % plant inhibition
Outline: as §1

Cocklebur [4] = test: post-emergence herbicide test; conditions: Xanthium strumarium, post-emergence, 0.25 lb/A; read-out: % plant inhibition
Outline: as §1

Velvetleaf [5] = test: post-emergence herbicide test; conditions: Abutilon theophrasti, post-emergence, 0.25 lb/A; read-out: % plant inhibition
Outline: as §1

Blackgrass [6] = test: post-emergence herbicide test; conditions: Alopecurus myosuroides, post-emergence, 0.25 lb/A; read-out: % plant inhibition
Outline: as §1

Bedstraw Catchweed [7] = test: post-emergence herbicide test; conditions: Galium aparine, post-emergence, 0.25 lb/A; read-out: % plant inhibition
Outline: as §1

Green Foxtail [8] = test: post-emergence herbicide test; conditions: Setaria viridis, post-emergence, 0.25 lb/A; read-out: % plant inhibition
Outline: as §1

Barnyardgrass [9] = test: post-emergence herbicide test; conditions: Echinochloa crus-galli, post-emergence, 0.25 lb/A; read-out: % plant inhibition
Outline: as §1

Giant Foxtail [10] = test: post-emergence herbicide test; conditions: Setaria faberi, post-emergence, 0.25 lb/A; read-out: % plant inhibition
Outline: as §1

Soybean [11] = test: post-emergence herbicide test; conditions: Glycine max, post-emergence, 0.25 lb/A; read-out: % plant inhibition
Outline: as §1

Wheat [12] = test: post-emergence herbicide test; conditions: Triticum aestivum, post-emergence, 0.25 lb/A; read-out: % plant inhibition
Outline: as §1

Wild Oats [13] = test: post-emergence herbicide test; conditions: Avena fatua, post-emergence, 0.25 lb/A; read-out: % plant inhibition
Outline: as §1

Rape [14] = test: post-emergence herbicide test; conditions: post-emergence, 0.25 lb/A; read-out: % plant inhibition
Outline: as §1

Morning Glory [15] = test: post-emergence herbicide test; conditions: Ipomoea, post-emergence, 0.25 lb/A; read-out: % plant inhibition
Outline: as §1

Common Chickweed [16] = test: post-emergence herbicide test; conditions: post-emergence, 0.25 lb/A; read-out: % plant inhibition
Outline: as §1

Corn [17] = test: post-emergence herbicide test; conditions: Zea mays, post-emergence, 0.25 lb/A; read-out: % plant inhibition
Outline: as §1

Seedling Johnsongrass [18] = test: pre-emergence herbicide test; conditions: Sorghum halepense, pre-emergence, 0.25 lb/A; read-out: % plant inhibition
Outline: (§2)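 Read-out is percent inhibition at approximately 14 days after seeding and treating. Seeds sat on compacted topsoil beneath a cover layer containing compound in acetone or water, with greenhouse bottom-watering.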

Birdseye Speedwell [19] = test: pre-emergence herbicide test; conditions: pre-emergence, 0.25 lb/A; read-out: % plant inhibition
Outline: as §2

Downy Brome [20] = test: pre-emergence herbicide test; conditions: Bromus tectorum, pre-emergence, 0.25 lb/A; read-out: % plant inhibition
Outline: as §2

Cocklebur [21] = test: pre-emergence herbicide test; conditions: Xanthium strumarium, pre-emergence, 0.25 lb/A; read-out: % plant inhibition
Outline: as §2

Velvetleaf [22] = test: pre-emergence herbicide test; conditions: Abutilon theophrasti, pre-emergence, 0.25 lb/A; read-out: % plant inhibition
Outline: as §2

Blackgrass [23] = test: pre-emergence herbicide test; conditions: Alopecurus myosuroides, pre-emergence, 0.25 lb/A; read-out: % plant inhibition
Outline: as §2

Bedstraw Catchweed [24] = test: pre-emergence herbicide test; conditions: Galium aparine, pre-emergence, 0.25 lb/A; read-out: % plant inhibition
Outline: as §2

Green Foxtail [25] = test: pre-emergence herbicide test; conditions: Setaria viridis, pre-emergence; 0.25 lb/A; read-out: % plant inhibition
Outline: as §2

Barnyardgrass [26] = test: pre-emergence herbicide test; conditions: Echinochloa crus-galli, pre-emergence, 0.25 lb/A; read-out: % plant inhibition
Outline: as §2

Giant Foxtail [27] = test: pre-emergence herbicide test; conditions: Setaria faberi, pre-emergence, 0.25 lb/A; read-out: % plant inhibition
Outline: as §2

Soybean [28] = test: pre-emergence herbicide test; conditions: Glycine max, pre-emergence, 0.25 lb/A; read-out: % plant inhibition
Outline: as §2

Wheat [29] = test: pre-emergence herbicide test; conditions: Triticum aestivum, pre-emergence, 0.25 lb/A; read-out: % plant inhibition
Outline: as §2

Wild Oats [30] = test: pre-emergence herbicide test; conditions: Avena fatua, pre-emergence, 0.25 lb/A; read-out: % plant inhibition
Outline: as §2

Rape [31] = test: pre-emergence herbicide test; conditions: pre-emergence, 0.25 lb/A; read-out: % plant inhibition
Outline: as §2

Morning Glory [32] = test: pre-emergence herbicide test; conditions: Ipomoea, pre-emergence, 0.25 lb/A; read-out: % plant inhibition
Outline: as §2

Common Chickweed [33] = test: pre-emergence herbicide test; conditions: pre-emergence, 0.25 lb/A; read-out: % plant inhibition
Outline: as §2

Corn [34] = test: pre-emergence herbicide test; conditions: Zea mays, pre-emergence, 0.25 lb/A; read-out: % plant inhibition
Outline: as §2

## CCOC(=O)C=C(COC(=O)c1cc(-c2nn(C)c(C(F)(F)F)c2C)c(F)cc1Cl)OC [Compound 44]
Seedling Johnsongrass [1]
  inhibition at 280.212 g/ha: 60%
Birdseye Speedwell [2]
  inhibition at 280.212 g/ha: 100%
Downy Brome [3]
  inhibition at 280.212 g/ha: 35%
Cocklebur [4]
  inhibition at 280.212 g/ha: 99%
Velvetleaf [5]
  inhibition at 280.212 g/ha: 99%
Blackgrass [6]
  inhibition at 280.212 g/ha: 25%
Bedstraw Catchweed [7]
  inhibition at 280.212 g/ha: 100%
Green Foxtail [8]
  inhibition at 280.212 g/ha: 90%
Barnyardgrass [9]
  inhibition at 280.212 g/ha: 90%
Giant Foxtail [10]
  inhibition at 280.212 g/ha: 65%
Soybean [11]
  inhibition at 280.212 g/ha: 10%
Wheat [12]
  inhibition at 280.212 g/ha: 15%
Wild Oats [13]
  inhibition at 280.212 g/ha: 25%
Rape [14]
  inhibition at 280.212 g/ha: 45%
Morning Glory [15]
  inhibition at 280.212 g/ha: 80%
Common Chickweed [16]
  inhibition at 280.212 g/ha: 95%
Corn [17]
  inhibition at 280.212 g/ha: 15%
Seedling Johnsongrass [18]
  inhibition at 280.212 g/ha: 40%
Birdseye Speedwell [19]
  inhibition at 280.212 g/ha: 85%
Downy Brome [20]
  inhibition at 280.212 g/ha: 5%
Cocklebur [21]
  inhibition at 280.212 g/ha: 0%
Velvetleaf [22]
  inhibition at 280.212 g/ha: 60%
Blackgrass [23]
  inhibition at 280.212 g/ha: 20%
Bedstraw Catchweed [24]
  inhibition at 280.212 g/ha: 40%
Green Foxtail [25]
  inhibition at 280.212 g/ha: 100%
Barnyardgrass [26]
  inhibition at 280.212 g/ha: 10%
Giant Foxtail [27]
  inhibition at 280.212 g/ha: 50%
Soybean [28]
  inhibition at 280.212 g/ha: 0%
Wheat [29]
  inhibition at 280.212 g/ha: 0%
Wild Oats [30]
  inhibition at 280.212 g/ha: 5%
Rape [31]
  inhibition at 280.212 g/ha: 20%
Morning Glory [32]
  inhibition at 280.212 g/ha: 50%
Common Chickweed [33]
  inhibition at 280.212 g/ha: 85%
Corn [34]
  inhibition at 280.212 g/ha: 0%

## Cc1c(-c2cc(C(=O)OCC(C)C)c(Cl)cc2F)nn(C)c1C(F)(F)F [Compound 45]
Seedling Johnsongrass [1]
  inhibition at 280.212 g/ha: 95%
Birdseye Speedwell [2]
  inhibition at 280.212 g/ha: 100%
Downy Brome [3]
  inhibition at 280.212 g/ha: 95%
Cocklebur [4]
  inhibition at 280.212 g/ha: 100%
Velvetleaf [5]
  inhibition at 280.212 g/ha: 100%
Blackgrass [6]
  inhibition at 280.212 g/ha: 98%
Bedstraw Catchweed [7]
  inhibition at 280.212 g/ha: 100%
Green Foxtail [8]
  inhibition at 280.212 g/ha: 100%
Barnyardgrass [9]
  inhibition at 280.212 g/ha: 75%
Giant Foxtail [10]
  inhibition at 280.212 g/ha: 80%
Soybean [11]
  inhibition at 280.212 g/ha: 35%
Wheat [12]
  inhibition at 280.212 g/ha: 17%
Wild Oats [13]
  inhibition at 280.212 g/ha: 80%
Rape [14]
  inhibition at 280.212 g/ha: 50%
Morning Glory [15]
  inhibition at 280.212 g/ha: 50%
Common Chickweed [16]
  inhibition at 280.212 g/ha: 100%
Corn [17]
  inhibition at 280.212 g/ha: 55%
Seedling Johnsongrass [18]
  inhibition at 280.212 g/ha: 98%
Birdseye Speedwell [19]
  inhibition at 280.212 g/ha: 100%
Downy Brome [20]
  inhibition at 280.212 g/ha: 98%
Cocklebur [21]
  inhibition at 280.212 g/ha: 50%
Velvetleaf [22]
  inhibition at 280.212 g/ha: 98%
Blackgrass [23]
  inhibition at 280.212 g/ha: 100%
Bedstraw Catchweed [24]
  inhibition at 280.212 g/ha: 98%
Green Foxtail [25]
  inhibition at 280.212 g/ha: 100%
Barnyardgrass [26]
  inhibition at 280.212 g/ha: 75%
Giant Foxtail [27]
  inhibition at 280.212 g/ha: 100%
Soybean [28]
  inhibition at 280.212 g/ha: 0%
Wheat [29]
  inhibition at 280.212 g/ha: 0%
Wild Oats [30]
  inhibition at 280.212 g/ha: 50%
Rape [31]
  inhibition at 280.212 g/ha: 5%
Morning Glory [32]
  inhibition at 280.212 g/ha: 30%
Common Chickweed [33]
  inhibition at 280.212 g/ha: 80%
Corn [34]
  inhibition at 280.212 g/ha: 0%

## CCC(CC)COC(=O)c1cc(-c2nn(C)c(C(F)(F)F)c2C)c(F)cc1Cl [Compound 46]
Seedling Johnsongrass [1]
  inhibition at 280.212 g/ha: 25%
Birdseye Speedwell [2]
  inhibition at 280.212 g/ha: 100%
Downy Brome [3]
  inhibition at 280.212 g/ha: 15%
Cocklebur [4]
  inhibition at 280.212 g/ha: 85%
Velvetleaf [5]
  inhibition at 280.212 g/ha: 98%
Blackgrass [6]
  inhibition at 280.212 g/ha: 20%
Bedstraw Catchweed [7]
  inhibition at 280.212 g/ha: 100%
Green Foxtail [8]
  inhibition at 280.212 g/ha: 70%
Barnyardgrass [9]
  inhibition at 280.212 g/ha: 50%
Giant Foxtail [10]
  inhibition at 280.212 g/ha: 0%
Soybean [11]
  inhibition at 280.212 g/ha: 15%
Wheat [12]
  inhibition at 280.212 g/ha: 15%
Wild Oats [13]
  inhibition at 280.212 g/ha: 20%
Rape [14]
  inhibition at 280.212 g/ha: 45%
Morning Glory [15]
  inhibition at 280.212 g/ha: 70%
Common Chickweed [16]
  inhibition at 280.212 g/ha: 95%
Corn [17]
  inhibition at 280.212 g/ha: 15%
Seedling Johnsongrass [18]
  inhibition at 280.212 g/ha: 75%
Birdseye Speedwell [19]
  inhibition at 280.212 g/ha: 80%
Downy Brome [20]
  inhibition at 280.212 g/ha: 15%
Cocklebur [21]
  inhibition at 280.212 g/ha: 10%
Velvetleaf [22]
  inhibition at 280.212 g/ha: 80%
Blackgrass [23]
  inhibition at 280.212 g/ha: 10%
Bedstraw Catchweed [24]
  inhibition at 280.212 g/ha: 75%
Green Foxtail [25]
  inhibition at 280.212 g/ha: 80%
Barnyardgrass [26]
  inhibition at 280.212 g/ha: 0%
Giant Foxtail [27]
  inhibition at 280.212 g/ha: 40%
Soybean [28]
  inhibition at 280.212 g/ha: 0%
Wheat [29]
  inhibition at 280.212 g/ha: 0%
Wild Oats [30]
  inhibition at 280.212 g/ha: 5%
Rape [31]
  inhibition at 280.212 g/ha: 5%
Morning Glory [32]
  inhibition at 280.212 g/ha: 20%
Common Chickweed [33]
  inhibition at 280.212 g/ha: 90%
Corn [34]
  inhibition at 280.212 g/ha: 0%
